Measured values: US20060069123A1, “Substituted dipiperidine CCR2 antagonists” (priority 2004, published 2006)
Where two headings read alike, the source gives them in different places.

What was measured:
[1] = tested on: THP-1 cells; details: Homo sapiens; for inhibition at 25 µM: THP-1, read-out: Inhibition of MCP-1 Induced Calcium Ion Influx, percent inhibition
[2] = biological target: T1, CCR2 (Homo sapiens, UniProt P41597)
T1 sequence (P41597 1-360 isoform P41597-2): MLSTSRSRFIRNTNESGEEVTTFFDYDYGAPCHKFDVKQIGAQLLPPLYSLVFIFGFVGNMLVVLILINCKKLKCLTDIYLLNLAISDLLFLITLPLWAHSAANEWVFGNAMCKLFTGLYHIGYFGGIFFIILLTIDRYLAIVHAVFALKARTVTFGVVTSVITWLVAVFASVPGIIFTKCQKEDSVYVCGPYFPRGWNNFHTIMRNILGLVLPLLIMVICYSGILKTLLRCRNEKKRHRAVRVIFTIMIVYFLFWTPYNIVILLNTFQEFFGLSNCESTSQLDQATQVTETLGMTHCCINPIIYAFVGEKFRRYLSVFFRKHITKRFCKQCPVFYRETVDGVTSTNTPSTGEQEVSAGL

[3] = tested on: THP-1 cells; experiment: MCP-1 Induced Chemotaxis in THP-1 Cells; type: cell-based; details: Homo sapiens; THP-1 cells, MCP-1 0.01 μg/mL, 3 hours; read-out: Inhibition of MCP-1 Induced Chemotaxis IC50
Procedure: MCP-1 Induced Chemotaxis in THP-1 Cells
MCP-1 induced chemotaxis was run in a 24-well chemotaxis chamber. MCP-1 (0.01 μg/mL) was added to the lower chamber and 100 μL of THP-1 cells (1×10^7 cell/mL) was added to the top chamber. Varying concentrations of test compound were added to the top and bottom chambers. Cells were allowed to chemotax for 3 hours at 37° C. and 5% CO2. An aliquot of the cells that had migrated to the bottom chamber was taken and counted then compared to vehicle.

[4] = THP-1, read-out: Inhibition of MCP-1 Induced Calcium Ion Influx IC50

| SMILES | IC50 [2] [nM] | IC50 [3] [nM] | further results |
| --- | --- | --- | --- |
| COc1ccc(C2CCN(C(CO)C3CCN(C(=O)c4cc5cc(Cl)ccc5o4)CC3)CC2)cc1 (stereo not shown) [Cpd 160, (5-chloro-benzofuran-2-yl)-(4-{2-hydroxy-1-[4-(4-methoxy-phenyl)-piperidin-1-yl]-ethyl}-piperidin-1-yl)-methanone] | – | – | inhibition at 25 µM [1]: 33%; inhibition at 25 µM ([2]; read-out: Inhibition of MCP-1 Binding, percent inhibition): 56% |
| OCC(C1CCN(C(=S)Nc2cc(F)cc(F)c2)CC1)N1CCC(c2c[nH]c3ccccc23)CC1 (stereo not shown) [Cpd 124, 4-{2-hydroxy-1-[4-(1H-indol-3-yl)-piperidin-1-yl]-ethyl}-piperidine-1-carbothioic acid (3,5-difluoro-phenyl)-amide] | 130 | – | IC50 [1, 4]: 70 nM |
| O=C(C=Cc1cc(F)c(F)c(F)c1)N1CCC(C(CO)N2CCC(c3ccc(Cl)cc3)CC2)CC1 (stereo not shown) [Cpd 246, (2E)-1-(4-{1-[4-(4-chloro-phenyl)-piperidin-1-yl]-2-hydroxy-ethyl}-piperidin-1-yl)-3-(3,4,5-trifluoro-phenyl)-propenone] | 70 | – | IC50 [1, 4]: 20 nM |
| NC(=O)C(C1CCN(C(=O)/C=C/c2cc(F)c(F)c(F)c2)CC1)N1CCC(c2c[nH]c3ncccc23)CC1 (stereo not shown) [Cpd 227, 2-[4-(1H-pyrrolo[2,3-b]pyridin-3-yl)-piperidin-1-yl]-2-{1-[(2E)-3-(3,4,5-trifluoro-phenyl)-acryloyl]-piperidin-4-yl}-acetamide] | – | – | IC50 ([1]; THP-1, read-out: Inhibition of MCP-1 Induced Calcium Ion Influx IC50, THP-1 cells, 0.2 μM MCP-1, FLIPR): 870 nM; IC50 ([2]; Inhibition of MCP-1 Binding IC50, 125I labeled MCP-1 binding to CCR2, THP-1 cells): 960 nM |
| O=CNCC(C1CCN(C(=O)/C=C/c2cc(F)c(F)c(F)c2)CC1)N1CCC(c2c[nH]c3ccccc23)CC1 (stereo not shown) [Cpd 220] | 440 | – | IC50 [1, 4]: 960 nM |
| O=C(O)C(C1CCN(C(=O)/C=C/c2ccc(Cl)c(Cl)c2)CC1)N1CCC(c2c[nH]c3cc(Cl)ccc23)CC1 (stereo not shown) [Cpd 46, [4-(6-chloro-1H-indol-3-yl)-piperidin-1-yl]-{1-[(2E)-3-(3,4-dichloro-phenyl)-acryloyl]-piperidin-4-yl}-acetic acid] | 1 | 0.2 | – |
| O=C(O)C(C1CCN(C(=O)Nc2cc(F)cc(F)c2)CC1)N1CCC(c2c[nH]c3ccccc23)CC1 (stereo not shown) [Cpd 28, [1-(3,5-difluoro-phenylcarbamoyl)-piperidin-4-yl]-[4-(1H-indol-3-yl)-piperidin-1-yl]-acetic acid] | 100 | 430 | – |
| O=C(O)C(C1CCN(C(=O)/C=C/c2cccc([N+](=O)[O-])c2)CC1)N1CCC(c2c[nH]c3ccccc23)CC1 (stereo not shown) [Cpd 92, [4-(1H-indol-3-yl)-piperidin-1-yl]-{1-[(2E)-3-(3-nitro-phenyl)-acryloyl]-piperidin-4-yl}-acetic acid] | 40 | 100 | – |
| Cc1ccc(NC(=O)N2CCC(C(C(=O)O)N3CCC(c4c[nH]c5ccccc45)CC3)CC2)cc1Cl (stereo not shown) [Cpd 49, [1-(3-chloro-4-methyl-phenylcarbamoyl)-piperidin-4-yl]-[4-(1H-indol-3-yl)-piperidin-1-yl]-acetic acid] | 25 | 4 | – |
| COc1cccc2[nH]cc(C3CCN(C(C(=O)O)C4CCN(C(=O)/C=C/c5cc(F)cc(F)c5)CC4)CC3)c12 (stereo not shown) [Cpd 41, {1-[(2E)-3-(3,5-difluoro-phenyl)-acryloyl]-piperidin-4-yl}-[4-(4-methoxy-1H-indol-3-yl)-piperidin-1-yl]-acetic acid] | 14 | 40 | – |
| COc1ccc2c(C3CCN(C(C(=O)O)C4CCN(C(=O)/C=C/c5cc(F)cc(F)c5)CC4)CC3)c[nH]c2c1 (stereo not shown) [Cpd 38, {1-[(2E)-3-(3,5-difluoro-phenyl)-acryloyl]-piperidin-4-yl}-[4-(6-methoxy-1H-indol-3-yl)-piperidin-1-yl]-acetic acid] | 20 | 4 | – |
| O=C(O)C(C1CCN(C(=O)Nc2ccc(F)c(C(F)(F)F)c2)CC1)N1CCC(c2c[nH]c3ccccc23)CC1 (stereo not shown) [Cpd 58, [1-(4-fluoro-3-trifluoromethyl-phenylcarbamoyl)-piperidin-4-yl]-[4-(1H-indol-3-yl)-piperidin-1-yl]-acetic acid] | 90 | 130 | – |

Continued, in another order:

| IC50 [2] [nM] | IC50 [3] [nM] | SMILES | further results |
| --- | --- | --- | --- |
| 260 | – | O=C(C=Cc1ccc(Cl)c(Cl)c1)N1CCC(C(CO)N2CCC(c3ccc(Cl)cc3)CC2)CC1 (stereo not shown) [Cpd 244, (2E)-1-(4-{1-[4-(4-chloro-phenyl)-piperidin-1-yl]-2-hydroxy-ethyl}-piperidin-1-yl)-3-(3,4-dichloro-phenyl)-propenone] | IC50 [1, 4]: 80 nM |
| 80 | – | OCC(C1CCN(C(=S)Nc2cccc(C(F)(F)F)c2)CC1)N1CCC(c2c[nH]c3ccccc23)CC1 (stereo not shown) [Cpd 120, 4-{2-hydroxy-1-[4-(1H-indol-3-yl)-piperidin-1-yl]-ethyl}-piperidine-1-carbothioic acid (3-trifluoromethyl-phenyl)-amide] | IC50 [1, 4]: 1 nM |
| 340 | – | CC(=O)NCC(C1CCN(C(=O)/C=C/c2ccsc2)CC1)N1CCC(c2c[nH]c3ccccc23)CC1 (stereo not shown) [Cpd 219] | inhibition at 25 µM [1]: 52% |
| 150 | 450 | O=C(/C=C/c1cc(F)cc(F)c1)N1CCC(C(CO)N2CCC(c3nc4ccccc4[nH]3)CC2)CC1 (stereo not shown) [Cpd 174, (2E)-1-(4-{1-[4-(1H-benzoimidazol-2-yl)-piperidin-1-yl]-2-hydroxy-ethyl}-piperidin-1-yl)-3-(3,5-difluoro-phenyl)-propenone] | – |
| 4 | 20 | O=C(O)C(C1CCN(C(=O)/C=C/c2cccc(Cl)c2)CC1)N1CCC(c2c[nH]c3ccccc23)CC1 (stereo not shown) [Cpd 93, {1-[(2E)-3-(3-chloro-phenyl)-acryloyl]-piperidin-4-yl}-[4-(1H-indol-3-yl)-piperidin-1-yl]-acetic acid] | – |
| 210 | 280 | O=C(O)C(C1CCN(C(=O)Nc2cccc(Cl)c2)CC1)N1CCC(c2c[nH]c3ccccc23)CC1 (stereo not shown) [Cpd 86, [1-(3-chloro-phenylcarbamoyl)-piperidin-4-yl]-[4-(1H-indol-3-yl)-piperidin-1-yl]-acetic acid] | – |
| 170 | 190 | O=C(O)C(C1CCN(C(=O)Nc2cccc(Br)c2)CC1)N1CCC(c2c[nH]c3ccccc23)CC1 (stereo not shown) [Cpd 85, [1-(3-bromo-phenylcarbamoyl)-piperidin-4-yl]-[4-(1H-indol-3-yl)-piperidin-1-yl]-acetic acid] | – |
| 24 | 0.4 | CS(=O)(=O)Nc1ccc2[nH]cc(C3CCN(C(C(=O)O)C4CCN(C(=O)/C=C/c5cc(F)cc(F)c5)CC4)CC3)c2c1 (stereo not shown) [Cpd 29, {1-[(2E)-3-(3,5-difluoro-phenyl)-acryloyl]-piperidin-4-yl}-[4-(5-methanesulfonylamino-1H-indol-3-yl)-piperidin-1-yl]-acetic acid] | – |
| 30 | 30 | CC(C)(C)OC(=O)Nc1ccc2[nH]cc(C3CCN(C(C(=O)O)C4CCN(C(=O)/C=C/c5cc(F)c(F)c(F)c5)CC4)CC3)c2c1 (stereo not shown) [Cpd 81] | – |
| 1830 | 1810 | COc1ccc(C2CCN(C(C(=O)O)C3CCN(C(=O)/C=C/c4cc(F)cc(F)c4)CC3)CC2)cc1 (stereo not shown) [Cpd 2, {1-[(2E)-3-(3,5-difluoro-phenyl)-acryloyl]-piperidin-4-yl}-[4-(4-methoxy-phenyl)-piperidin-1-yl]-acetic acid] | – |
| 10 | 10 | COc1ccc2[nH]cc(C3CCN(C(C(=O)O)C4CCN(C(=O)Nc5ccc(Cl)c(Cl)c5)CC4)CC3)c2c1 (stereo not shown) [Cpd 94, [1-(3,4-dichloro-phenylcarbamoyl)-piperidin-4-yl]-[4-(5-methoxy-1H-indol-3-yl)-piperidin-1-yl]-acetic acid] | – |
